Data set [1] in a line: Partition coefficient log Po/w by HPLC (OECD 117). The format is physicochemical. The conditions noted are these: HPLC method, OECD 117, methanol:water 3:1. As for the experimental part: The analyses were performed with the use of an isocratic flow in methanol: water (3:1) at 1.0 mL min^−1. We injected 20.0 μL and analyses were performed at 254 nm. We used as reference compounds thiourea, phenol, acetophenone, benzoic acid, benzene, toluene, biphenyl, fluoranthene and triphenylamine in order to construct the curve log K × log Po/w. The lipophilicity of alkyl dihydroxybenzoates was determined from their retention times and interpolation in linearity curve log K × log Po/w. We performed the analyses in duplicate.

Data set [2] concerns X. citri subsp. citri strain 306 (IBSBF 1594). The experiment in a line: MIC by Resazurin Microtiter Assay (REMA). It counts as cell-based, Xanthomonas citri subsp. citri. The conditions noted are these: Xanthomonas citri, 12 h, REMA, NYG medium, 29 °C. How it is done: The antibacterial potential of carboxylic acids and their esters were compared to copper oxychloride (a commercial active often used to combat citrus canker). Minimal inhibitory concentration (MIC) values were determined by REMA assay, which measures cellular respiratory activity.
(§1) The antibacterial activity of alkyl dihydroxybenzoates and the determination of minimum inhibition concentration (MIC) were performed by the fluorimetric method Resazurin Microtiter Assay (REMA) with some modifications. An overnight culture of X. citri subsp. citri strain 306 (IBSBF 1594) was grown in 20 mL in Nitrogen Yeast Glycerol (NYG) at 29 °C in constant agitation of 180–200 rpm. After 12 h, the Xcc inoculum was dispersed in NYG medium and distributed into a 96 well microtiter plate to a final volume of 100 μL per well (10^5 CFU per well). Stock solutions of tested compounds at 10 mg mL^−1 were prepared in dimethyl sulfoxide (DMSO) and dispersed in NYG medium to obtain 1% DMSO and the final compound concentration range of 0.78–100 μg mL^−1. The negative control was constituted of 100 μL culture medium. In addition, the copper oxychloride was tested as a comparison to alkyl dihydroxybenzoates and kanamycin (20 μg mL^−1), which was used as a control antibiotic. The plate was subsequently incubated at 29 °C for 12 h, and 15 μg mL^−1 freshly prepared resazurin solution in water was added to each well, and the plate was incubated for 2 h. The fluorescence was determined on a Synergy H1 (BioTek, Winooski, VT, USA) microplate reader using the excitation and emission filters at wavelengths of 530 and 590 nm respectively. After the REMA assay, the minimum bactericidal concentration (CBM) assay was performed using a 96-pin stainless steel plate replicator, accurately transferring the wells from the REMA plate to Petri dishes Petri dishes were incubated in oven B.O.D. at 29 °C for 24 to 48 h. The experiments were performed in triplicate.
On the technique in general: Alamar Blue is a resazurin reagent that responds to reducing activity.

The test system is the same in data set [3]. The data set can be described thus: MBC, REMA plates replicated to Petri dishes. To be noted: Xanthomonas citri; Petri dishes from REMA plates, 29 °C, 24 to 48 h; read-out: MBC. It counts as cell-based, Xanthomonas citri subsp. citri. How it is done:
The minimal bactericidal concentration (MBC) was determined by observing the bacterial growth in Petri dishes transferred from the REMA plates.
as §1

Data set [4] concerns HaCaT (human keratinocyte cell line). The data set can be described thus: Cytotoxicity MTT assay, HaCaT. The format is cell-based. How it is done:
(§2) This test is based on the reduction of 3-(4,5-dimethyl-2-thiazolyl)-2,5-diphenyl-2-tetrazole bromide by viable cells, with formation of violet insoluble formazan crystals. Five cell lines were used in order to evaluate the cytotoxic effect of the compounds as a whole.
(§3) The cytotoxicity of compounds 4, 16, 28 and copper oxychloride was determined by MTT assay. The cell lines used were HaCaT (human keratinocyte cell line—CLS 300493), Huh-7.5 (human hepatoma cell line—ATCC® PTA-8561), MRC-5 (human lung fibroblast cell line—ATCC CCL-171), VERO (monkey kidney epithelial cell line—ATCC® CCL81) and ACHN (human renal adenocarcinoma cell line—ATCC® CRL1611). The cells were cultured in appropriate medium recommended by the American Type Culture Collection.
(§4) The assay was performed with the concentration of 10^4 cells for both cell lines, distributed in 96-well plates and incubated at 37 °C in a 5% CO2 controlled atmosphere oven for 24 h. After the incubation period, the cells were treated with the compounds with a range of 1.56–200 μmol L^−1 and incubated for 24 h. The supernatant was removed, then 100 μL of 3-(4,5-dimethyl-2-thiazolyl)-2,5-diphenyl-2H-tetrazolium (MTT) salt at 1 mg mL^−1 diluted in DMEM medium (Gibco Life Technologies, Gaithersburg, MD, USA) was added and incubated for 30 min. Subsequently, the MTT was removed, then 100 μL of DMSO under agitation for 5 min at 60 rpm was added. The plates were read at 570 nm in a FLUOstar Omega/BMG LABTECH plate reader, Offenburg, BW, DE. We carried out the experiments in triplicate and three independent events for statistical analysis (GraphPad Software, San Diego, CA, USA). The MTT assay is based on the tetrazolium salt (yellow-colored) reduction to formazan (purple-colored) by metabolically active cells.
A general note: Tetrazolium assays rely on reduction of a dye to a coloured formazan, in cell work by metabolically active cells.

In data set [5] the test system is Huh-7.5 (human hepatoma cell line). The data set can be described thus: Cytotoxicity MTT assay, Huh-7.5. The format is cell-based. How it is done:
as §2, §3, §4

For data set [6], the system named is VERO (monkey kidney epithelial cell line). The data set can be described thus: Cytotoxicity MTT assay, VERO. The format is cell-based. As for the experimental part:
as §2, §3, §4

In data set [7] the test system is ACHN (human renal adenocarcinoma cell line). The data set can be described thus: Cytotoxicity MTT assay, ACHN. The format is cell-based. How it is done:
as §2, §3, §4

[8] abbreviates: Homo sapiens, HaCaT, 24 h, read-out: IC50 HaCaT, MTT, 24 h treatment.
[9] abbreviates: MTT, 24 h treatment, read-out: IC50 HaCaT.
[10] abbreviates: Homo sapiens, Huh7.5, 24 h, read-out: IC50 Huh-7,5, MTT, 24 h treatment.
The mark [11] stands for this setting: MTT, 24 h treatment, read-out: IC50 Huh-7,5.
Where [12] appears, read: Homo sapiens, ACHN, 24 h, read-out: IC50 ACHN, MTT, 24 h treatment.
The mark [13] stands for this setting: MTT, 24 h treatment, read-out: IC50 ACHN.
Where [14] appears, read: Primates, Vero, 24 h, MTT, 24 h treatment, read-out: IC50 VERO.

Consider three compounds from article PMC6213047, “Design of Antibacterial Agents: Alkyl Dihydroxybenzoates against Xanthomonas citri subsp. citri” (International Journal of Molecular Sciences, 2018).

Read-outs that look alike come from different tables or passages of the source.

`CCCCCCCOC(=O)c1ccc(O)cc1O` [Compound 4]: the chromatographic logP (as a rule, a lipophilicity value derived from retention on a column) in data set [1] stood at 5.1. Besides, the MIC (in general, the smallest concentration in the dilution series that meets the test's criterion for growth inhibition) in data set [2] (read-out: MIC in μM) amounted to 52 µM. In addition, in data set [3], the MBC (usually the smallest concentration meeting the test's criterion for killing) was 25 µg/mL. The IC50 (commonly the point on the concentration scale where inhibition reaches its midpoint) was around 70 µM in data set [4] (setting [8]); 64.9 ± 8.91 µM in data set [4] (setting [9]); around 70 µM in data set [5] (setting [10]); 70.6 ± 5.52 µM in data set [5] (setting [11]); 111 ± 8.34 µM in data set [6] (MTT, 24 h treatment, read-out: IC50 VERO); above 100 µM in data set [6] (Primates, Vero, 24 h, read-out: IC50 VERO, MTT, 24 h treatment). For the same compound, the IC50 in data set [7] (setting [12]) was above 100 µM; in data set [7] (setting [13]), 153 ± 7.07 µM.
Regarding `CCCCCCCOC(=O)c1cc(O)ccc1O` [Compound 16], the chromatographic logP in data set [1] came to 5. Also, the MIC in data set [2] (read-out: MIC in μM) turned out to be 80 µM. In data set [3], the MBC came out at 25 µg/mL. In addition, the IC50 in data set [4] (setting [8]) is around 70 µM; in data set [4] (setting [9]) it was 69.8 ± 4.87 µM; in data set [5] (Homo sapiens, Huh7.5, 24 h, MTT, 24 h treatment, read-out: IC50 Huh-7,5), 20.6 ± 0.23 µM; in data set [6] (setting [14]) it was 93.5 ± 1.93 µM; in data set [7] (setting [12]), above 100 µM; in data set [7] (setting [13]), 140 ± 7.56 µM.
In the case of `CCCCCCCOC(=O)c1ccc(O)c(O)c1` [Compound 28], the chromatographic logP in data set [1] was found to be 4.3. Also, the MIC came to 22.2 µg/mL in data set [2] (read-out: MIC) and 88 µM in data set [2] (read-out: MIC in μM). For the same compound, in data set [3], the MBC came to 50 µg/mL. Moreover, the IC50 was around 70 µM in data set [4] (setting [8]); 74 ± 11.7 µM in data set [4] (setting [9]); around 70 µM in data set [5] (setting [10]); 64.8 ± 14.9 µM in data set [5] (setting [11]); 92.3 ± 9.34 µM in data set [6] (setting [14]); above 100 µM in data set [7] (setting [12]). For the same compound, the IC50 in data set [7] (setting [13]) worked out at 114 ± 9.97 µM.
